The text below walks through data of ChEMBL document CHEMBL5038626 (Eur J Med Chem, 2022).

In brackets after ≈: the same amount, converted by molar mass. Activity calls are given as the source filed them.

One data set has as its system Escherichia coli. Description: Antibacterial activity against Escherichia coli ATCC 8739 assessed as inhibition of bacterial growth incubated for 24 hrs by broth microdilution method. Format: functional. A general note: Dilution methods test growth across graded concentrations, often in twofold steps.
The target in the next data set is Topoisomerase IV (Staphylococcus aureus, UniProt P0C1S7+P0C1U9). Description: Inhibition of Staphylococcus aureus topoisomerase 4 assessed as reduction in decatenation using kDNA as substrate incubated for 30 mins by fluorimetric assay. Format: protein-complex assay.
Topoisomerase IV, sequence (P0C1U9 whole entry): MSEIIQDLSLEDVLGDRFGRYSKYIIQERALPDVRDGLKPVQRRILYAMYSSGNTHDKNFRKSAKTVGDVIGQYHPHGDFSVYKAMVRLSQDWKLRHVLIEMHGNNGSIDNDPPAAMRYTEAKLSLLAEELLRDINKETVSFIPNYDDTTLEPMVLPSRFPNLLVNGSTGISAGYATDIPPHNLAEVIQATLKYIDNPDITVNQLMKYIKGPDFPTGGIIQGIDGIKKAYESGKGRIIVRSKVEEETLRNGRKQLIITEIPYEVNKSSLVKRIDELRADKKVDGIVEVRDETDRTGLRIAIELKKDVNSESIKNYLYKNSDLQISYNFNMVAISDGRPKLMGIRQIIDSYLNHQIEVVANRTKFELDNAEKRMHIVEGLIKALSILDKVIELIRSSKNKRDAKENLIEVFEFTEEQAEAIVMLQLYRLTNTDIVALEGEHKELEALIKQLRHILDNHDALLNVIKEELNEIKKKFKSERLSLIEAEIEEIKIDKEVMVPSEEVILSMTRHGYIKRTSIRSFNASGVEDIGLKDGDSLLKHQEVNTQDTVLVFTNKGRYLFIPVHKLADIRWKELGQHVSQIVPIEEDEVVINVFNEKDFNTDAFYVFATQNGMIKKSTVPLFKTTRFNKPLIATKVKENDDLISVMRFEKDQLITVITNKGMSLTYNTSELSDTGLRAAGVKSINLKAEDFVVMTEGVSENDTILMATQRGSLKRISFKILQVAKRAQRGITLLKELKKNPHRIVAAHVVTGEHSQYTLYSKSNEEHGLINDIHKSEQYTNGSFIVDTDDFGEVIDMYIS
Topoisomerase IV, sequence (P0C1S7 whole entry): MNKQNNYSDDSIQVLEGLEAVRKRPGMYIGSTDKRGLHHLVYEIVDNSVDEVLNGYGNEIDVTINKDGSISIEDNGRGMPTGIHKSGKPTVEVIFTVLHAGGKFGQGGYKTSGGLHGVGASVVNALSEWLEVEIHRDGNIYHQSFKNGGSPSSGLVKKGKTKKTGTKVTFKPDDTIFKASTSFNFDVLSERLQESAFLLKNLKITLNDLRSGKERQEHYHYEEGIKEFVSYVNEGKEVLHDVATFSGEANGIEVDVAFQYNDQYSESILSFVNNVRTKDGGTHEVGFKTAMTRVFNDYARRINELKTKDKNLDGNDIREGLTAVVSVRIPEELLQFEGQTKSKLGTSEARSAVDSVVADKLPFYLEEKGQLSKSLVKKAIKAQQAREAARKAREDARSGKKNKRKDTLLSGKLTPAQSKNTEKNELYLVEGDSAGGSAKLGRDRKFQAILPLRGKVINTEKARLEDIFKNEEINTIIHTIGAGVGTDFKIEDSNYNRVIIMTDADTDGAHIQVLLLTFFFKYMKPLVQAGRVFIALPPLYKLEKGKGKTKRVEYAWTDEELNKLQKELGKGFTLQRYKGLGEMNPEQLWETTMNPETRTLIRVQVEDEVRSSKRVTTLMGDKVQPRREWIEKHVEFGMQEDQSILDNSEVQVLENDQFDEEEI
Another data set relates to Staphylococcus aureus. Nature of the data set: Antibacterial activity against Staphylococcus aureus Newman assessed as inhibition of bacterial growth incubated for 24 hrs by broth microdilution method. Format: functional.
For another data set, the target named is DNA gyrase (Escherichia coli, UniProt P0AES4+P0AES6). Description: Inhibition of Escherichia coli DNA gyrase supercoiling activity using pBR322 as substrate incubated for 30 mins by fluorimetric assay. Format: protein-complex assay.
The test system of a further data set is Mus musculus. Nature of the data set: Effect on GABA protein expression in Swiss albino mouse assessed as decrease in GABA protein expression at 0.6 mmol/Kg, iv administered as single dose by western blot analysis. Format: functional, organism-based. On the technique in general: In western blotting, separated proteins are transferred to a membrane and probed.

Data set [1] can be described thus: Toxicity in Swiss albino mouse assessed as clonic convulsions at 0.6 mmol/Kg, iv administered as single dose observed for 6 hrs. Format: organism-based. The conditions noted are these: in vivo.

As usually defined, the MIC is the smallest concentration in the dilution series that meets the test's criterion for growth inhibition. What is called IC50 is the concentration needed to halve the response being measured. As for `O=C(CN1CCN(c2cc3c(cc2F)c(=O)c(C(=O)O)cn3C2CC2)CC1)Nc1ccc(S(=O)(=O)Nc2ncccn2)cc1`, the minimum inhibitory concentration (MIC) with Escherichia coli was found to be 1.34 µM (≈ 0.834 µg/mL); with Staphylococcus aureus, 1.61 µM (≈ 1 µg/mL). The IC50 at Topoisomerase IV was found to be 2.08 µM; at DNA gyrase it was 2.87 µM.
Take `O=C(O)c1cn(C2CC2)c2cc(N3CCNCC3)c(F)cc2c1=O` [CIPROFLOXACIN]: the MIC with Escherichia coli turned out to be 0.255 µM (≈ 0.0845 µg/mL); in the data set on Staphylococcus aureus, 1.36 µM (≈ 0.45 µg/mL).
For the molecule `Cc1cc(NS(=O)(=O)c2ccc(NC(=O)CCN3CCN(c4cc5c(cc4F)c(=O)c(C(=O)O)cn5C4CC4)CC3)cc2)no1`, the minimal inhibitory concentration (MIC) was determined as 5.22 µM (≈ 3.33 µg/mL) in the data set on Escherichia coli and 1.04 µM (≈ 0.667 µg/mL) with Staphylococcus aureus. For the same molecule, the IC50 was determined as 3.91 µM on Topoisomerase IV and 6.31 µM at DNA gyrase.
On the same counts, the results for `O=C(CCN1CCN(c2cc3c(cc2F)c(=O)c(C(=O)O)cn3C2CC2)CC1)Nc1ccc(S(=O)(=O)Nc2ncccn2)cc1` are 2.62 µM (≈ 1.67 µg/mL), 1.57 µM (≈ 1 µg/mL), 1.8 µM and 1.99 µM.
For the molecule `Cc1cc(NS(=O)(=O)c2ccc(NC(=O)C(C)N3CCN(c4cc5c(cc4F)c(=O)c(C(=O)O)cn5C4CC4)CC3)cc2)no1` (stereo unspecified), the MIC in the data set with Escherichia coli is 1.04 µM (≈ 0.667 µg/mL); in the data set with Staphylococcus aureus it was 0.783 µM (≈ 0.5 µg/mL). In addition, the half-maximal inhibitory concentration (IC50) amounted to 0.39 µM on Topoisomerase IV and 1.27 µM at DNA gyrase. For the same molecule, the outcome with Mus musculus was Active. In addition, in data set [1], the Activity result is “Non-Toxic”.
For the molecule `O=C(CCN1CCN(c2cc3c(cc2F)c(=O)c(C(=O)O)cn3C2CC2)CC1)Nc1ccc(S(=O)(=O)Nc2cnc3ccccc3n2)cc1`, the MIC with Escherichia coli worked out at 0.608 µM (≈ 0.417 µg/mL); with Staphylococcus aureus it was 0.972 µM (≈ 0.667 µg/mL). In addition, the figures for the 50% inhibitory concentration (IC50) on Topoisomerase IV and at DNA gyrase were 0.23 µM and 0.43 µM, respectively. In the data set with Mus musculus, the result was Active. The Activity result in data set [1] is on record as “Non-Toxic”.
In the case of `Cc1cc(NS(=O)(=O)c2ccc(/N=N/N3CCN(c4cc5c(cc4F)c(=O)c(C(=O)O)cn5C4CC4)CC3)cc2)no1`, the minimum inhibitory concentration (MIC) was 1.12 µM (≈ 0.666 µg/mL) in the data set with Escherichia coli and 0.839 µM (≈ 0.5 µg/mL) with Staphylococcus aureus. The values for the IC50 on Topoisomerase IV and against DNA gyrase were 2.58 µM and 1.95 µM, respectively.
For the molecule `CC(C(=O)Nc1ccc(S(=O)(=O)Nc2cnc3ccccc3n2)cc1)N1CCN(c2cc3c(cc2F)c(=O)c(C(=O)O)cn3C2CC2)CC1` (stereo unspecified), the MIC in the data set on Escherichia coli is 1.94 µM (≈ 1.33 µg/mL); in the data set with Staphylococcus aureus, 0.729 µM (≈ 0.5 µg/mL). In addition, the values for the half-inhibitory concentration (IC50) on Topoisomerase IV and at DNA gyrase were 1.21 µM and 1.44 µM, respectively.
In the case of `O=C(O)c1cn(C2CC2)c2cc(N3CCN(/N=N/c4ccc(S(=O)(=O)Nc5cnc6ccccc6n5)cc4)CC3)c(F)cc2c1=O`, the MIC turned out to be 0.389 µM (≈ 0.25 µg/mL) in the data set on Escherichia coli and 5.19 µM (≈ 3.33 µg/mL) in the data set with Staphylococcus aureus. Further, the IC50 on Topoisomerase IV was 12.8 µM; at DNA gyrase, 5.86 µM.
`O=C(O)c1cn(C2CC2)c2cc(N3CCN(/N=N/c4ccc(S(=O)(=O)Nc5cncc(Cl)n5)cc4)CC3)c(F)cc2c1=O`: the figures for the MIC with Escherichia coli and with Staphylococcus aureus were 1.33 µM (≈ 0.833 µg/mL) and 1.59 µM (≈ 1 µg/mL), respectively. Besides, the IC50 was found to be 12.8 µM at Topoisomerase IV and 13 µM against DNA gyrase.
On the same counts, the results for `Cc1cc(NS(=O)(=O)c2ccc(NC(=O)CN3CCN(c4cc5c(cc4F)c(=O)c(C(=O)O)cn5C4CC4)CC3)cc2)no1` are 7.47 µM (≈ 4.67 µg/mL), 3.2 µM (≈ 2 µg/mL), 4.66 µM and 1.33 µM.
For `O=C(O)c1cn(C2CC2)c2cc(N3CCN(/N=N/c4ccc(S(=O)(=O)Nc5ncccn5)cc4)CC3)c(F)cc2c1=O`, the minimal inhibitory concentration (MIC) in the data set with Escherichia coli was determined as 0.013 µM (≈ 0.0077 µg/mL); in the data set with Staphylococcus aureus, 0.422 µM (≈ 0.25 µg/mL). Besides, the IC50 on Topoisomerase IV is 9.5 µM; at DNA gyrase, 12.8 µM.
Turning to `O=C(CN1CCN(c2cc3c(cc2F)c(=O)c(C(=O)O)cn3C2CC2)CC1)Nc1ccc(S(=O)(=O)Nc2cnc3ccccc3n2)cc1`, the values for the MIC in the data set on Escherichia coli and in the data set with Staphylococcus aureus were 0.744 µM (≈ 0.5 µg/mL) and 1.99 µM (≈ 1.33 µg/mL), respectively. Moreover, the IC50 at Topoisomerase IV was 0.35 µM; at DNA gyrase, 0.55 µM. Also, in the data set on Mus musculus, the result was Active. In data set [1], the Activity result was “Non-Toxic”.
Take `NC(N)=NS(=O)(=O)c1ccc(/N=N/N2CCN(c3cc4c(cc3F)c(=O)c(C(=O)O)cn4C3CC3)CC2)cc1`: the MIC in the data set on Escherichia coli came out at 3 µM (≈ 1.67 µg/mL); with Staphylococcus aureus it was 1.8 µM (≈ 1 µg/mL). In addition, the IC50 was 0.64 µM at Topoisomerase IV and 0.77 µM against DNA gyrase. For the same molecule, the result with Mus musculus was Active. Further, the Activity entry in data set [1] was “Non-Toxic”.
Turning to `NS(=O)(=O)c1ccc(NC(=O)CCN2CCN(c3cc4c(cc3F)c(=O)c(C(=O)O)cn4C3CC3)CC2)cc1`, the values for the MIC in the data set with Escherichia coli and in the data set on Staphylococcus aureus were 0.897 µM (≈ 0.5 µg/mL) and 2.99 µM (≈ 1.67 µg/mL), respectively. Moreover, the IC50 is 0.6 µM on Topoisomerase IV and 1.1 µM on DNA gyrase.
On the same counts, the results for `O=C(CCN1CCN(c2cc3c(cc2F)c(=O)c(C(=O)O)cn3C2CC2)CC1)Nc1ccc(S(=O)(=O)Nc2cncc(Cl)n2)cc1` are 287 µM (≈ 192 µg/mL), 287 µM (≈ 192 µg/mL), 0.44 µM and 1.24 µM.
In the case of `CC(C(=O)Nc1ccc(S(N)(=O)=O)cc1)N1CCN(c2cc3c(cc2F)c(=O)c(C(=O)O)cn3C2CC2)CC1` (stereo unspecified), the minimum inhibitory concentration (MIC) in the data set on Escherichia coli stood at 0.897 µM (≈ 0.5 µg/mL); with Staphylococcus aureus, 1.5 µM (≈ 0.834 µg/mL). The values for the IC50 on Topoisomerase IV and at DNA gyrase were 6.66 µM and 5.65 µM, respectively.
Take `NS(=O)(=O)c1ccc(NC(=O)CN2CCN(c3cc4c(cc3F)c(=O)c(C(=O)O)cn4C3CC3)CC2)cc1`: the MIC with Escherichia coli was determined as 12.3 µM (≈ 6.67 µg/mL); in the data set with Staphylococcus aureus, 7.36 µM (≈ 4 µg/mL). For the same molecule, the IC50 on Topoisomerase IV came to 3.77 µM; at DNA gyrase, 1.32 µM.
For `O=C(CN1CCN(c2cc3c(cc2F)c(=O)c(C(=O)O)cn3C2CC2)CC1)Nc1ccc(S(=O)(=O)Nc2cncc(Cl)n2)cc1` the same measures were 2.54 µM (≈ 1.67 µg/mL), 1.52 µM (≈ 1 µg/mL), 2.29 µM and 0.9 µM.
`NS(=O)(=O)c1ccc(/N=N/N2CCN(c3cc4c(cc3F)c(=O)c(C(=O)O)cn4C3CC3)CC2)cc1`: the minimum inhibitory concentration (MIC) with Escherichia coli stood at 0.025 µM (≈ 0.0129 µg/mL); in the data set with Staphylococcus aureus, 0.324 µM (≈ 0.167 µg/mL). Moreover, the values for the half-maximal inhibitory concentration (IC50) on Topoisomerase IV and against DNA gyrase were 2.43 µM and 3.56 µM, respectively.
